We go through six compounds from ChEMBL document CHEMBL1127109, “Thiol and hydroxamic acid containing inhibitors of endothelin converting enzyme” (Bioorg Med Chem Lett, 1993).

The target in test [1] is T1, Endothelin-converting enzyme 1 (Homo sapiens) (UniProt P42892).
T1 sequence (whole entry): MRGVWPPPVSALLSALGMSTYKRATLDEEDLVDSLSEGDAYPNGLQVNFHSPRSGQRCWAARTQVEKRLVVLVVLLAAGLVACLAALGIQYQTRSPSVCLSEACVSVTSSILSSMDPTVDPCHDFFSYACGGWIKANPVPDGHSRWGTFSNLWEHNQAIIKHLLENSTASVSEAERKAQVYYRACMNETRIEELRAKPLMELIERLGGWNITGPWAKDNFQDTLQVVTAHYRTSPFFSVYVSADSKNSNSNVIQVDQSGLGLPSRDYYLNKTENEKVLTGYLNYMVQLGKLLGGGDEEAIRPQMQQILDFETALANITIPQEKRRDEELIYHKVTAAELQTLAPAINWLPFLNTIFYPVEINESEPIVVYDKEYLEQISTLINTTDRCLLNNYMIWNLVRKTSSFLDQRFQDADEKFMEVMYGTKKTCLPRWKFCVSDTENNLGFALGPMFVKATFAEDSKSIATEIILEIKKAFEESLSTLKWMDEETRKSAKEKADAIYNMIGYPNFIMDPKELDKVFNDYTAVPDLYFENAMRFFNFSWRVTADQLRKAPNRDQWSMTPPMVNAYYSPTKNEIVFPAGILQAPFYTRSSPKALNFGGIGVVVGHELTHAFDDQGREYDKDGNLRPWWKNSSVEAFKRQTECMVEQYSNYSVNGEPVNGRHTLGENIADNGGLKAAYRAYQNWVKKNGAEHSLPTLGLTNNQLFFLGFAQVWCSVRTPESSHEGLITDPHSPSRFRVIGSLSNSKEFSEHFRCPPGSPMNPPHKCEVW
In words: Compound was tested in vitro for percent inhibition of a putative Endothelin-converting enzyme at 100 uM partially purified from rabbit lung membrane. It is filed as tissue-based. Conditions: Oryctolagus cuniculus, target entry is the homologue from another species.

The target in another test is T2, Thermolysin (Bacillus thermoproteolyticus, UniProt P00800).
T2 sequence (P00800 whole entry): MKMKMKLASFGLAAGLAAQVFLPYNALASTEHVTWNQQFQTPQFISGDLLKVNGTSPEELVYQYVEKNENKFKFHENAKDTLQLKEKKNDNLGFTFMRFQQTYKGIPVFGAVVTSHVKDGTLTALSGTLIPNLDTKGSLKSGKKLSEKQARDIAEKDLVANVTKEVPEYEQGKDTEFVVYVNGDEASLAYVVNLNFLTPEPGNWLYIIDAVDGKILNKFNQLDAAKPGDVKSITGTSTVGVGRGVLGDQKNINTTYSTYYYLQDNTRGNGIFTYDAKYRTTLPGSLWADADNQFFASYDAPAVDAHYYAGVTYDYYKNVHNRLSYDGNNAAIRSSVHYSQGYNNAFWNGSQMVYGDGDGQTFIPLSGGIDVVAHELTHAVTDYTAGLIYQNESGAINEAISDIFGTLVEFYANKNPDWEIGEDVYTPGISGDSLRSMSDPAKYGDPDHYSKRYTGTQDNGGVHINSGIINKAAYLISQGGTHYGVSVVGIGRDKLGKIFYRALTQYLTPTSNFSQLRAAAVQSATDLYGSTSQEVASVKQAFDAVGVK
In words: Compound was tested in vitro for inhibitory activity against thermolysin.

Where a SMILES comes first, the peptide text is derived from it. The star is where a group is joined. Cbz = O=C(OCc1ccccc1)*

A word on the inhibition: it is how much of the control response was suppressed. Lower therefore signals little suppression. As usually defined, the IC50 is the midpoint of a concentration-inhibition curve. Read a high IC50 as weaker potency.

Regarding `COC(=O)[C@H](Cc1c[nH]c2ccccc12)NC(=O)[C@H](CS)NC(=O)OCc1ccccc1` (Cbz-Cys-Trp-OMe), the inhibition in test [1] was found to be 93%.
For the compound `CC(C)C[C@H](C(=O)NO)C(=O)N[C@@H](C)C(=O)NCC(N)=O`, the midpoint of inhibition at Thermolysin, the IC50, lay at 64 nM.
The compound `COC(=O)[C@H](CC(C)C)NC(=O)[C@H](CS)NC(=O)OCc1ccccc1` showed an inhibition in test [1] of 89%.
In turn, `O=C(N[C@@H](CS)C(=O)N[C@@H](Cc1c[nH]c2ccccc12)C(=O)O)OCc1ccccc1` (Cbz-Cys-Trp-OH) yielded an inhibition in test [1] of 90%.
The same measure, in the same setting: next, `COC(=O)[C@H](Cc1c[nH]c2ccccc12)NC(=O)[C@H](CC(C)C)NC(=O)[C@H](CS)NC(=O)OCc1ccccc1` (Cbz-Cys-Leu-Trp-OMe): 83%; `CC(C)C[C@H](NC(=O)[C@H](CS)NC(=O)OCc1ccccc1)C(=O)N[C@@H](Cc1c[nH]c2ccccc12)C(=O)O` (Cbz-Cys-Leu-Trp-OH): 75%.
